Test results as given in the supplement of paper PMC10331698.
± gives the standard deviation of the averaged measurements.

Key:
Assay in all cases: level (log10 ratio to DMSO vehicle control); higher = higher biomarker level / cell amount than vehicle control
Conditions in all cases: in DMSO
[1] = compound: O=C(O)C(F)(F)C(F)(F)C(F)(F)C(F)(F)C(F)(F)C(F)(F)C(F)(F)C(F)(F)C(F)(F)F [Perfluorodecanoic acid]
Protocol: (§1)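 BioMAP Diversity Plus panel of 12 human primary cell co-culture systems (3C, 4H, LPS, SAg, BT, BF4T, BE3C, CASM3C, HDF3CGF, KF3CT, MyoF, Mphg). Compounds were added 1 h before stimulation and left for 24 h (MyoF 48 h; BT 72 h for soluble read-outs or 6 d for IgG). Biomarkers were read by ELISA, cytotoxicity by SRB, PBMC viability and proliferation by Alamar Blue. Each well value was divided by the mean of 8 DMSO control wells on the same plate and log10 transformed; duplicate blinded samples were tested at 4 concentrations.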

[2] = compound: NC(=O)C(F)(F)C(F)(F)C(F)(F)F [Heptafluorobutyramide]
Protocol: as §1

[3] = compound: FC(F)(F)C(F)(C(F)(F)F)C(F)(F)C(F)(F)CC1CO1 [3-(Perfluoro-3-methylbutyl)-1,2-propenoxide]
Protocol: as §1

[4] = compound: O=C(O)C(F)(F)C(F)(F)OC(F)(F)F [Perfluoro-3-methoxypropanoic acid]
Protocol: as §1

[5] = compound: CCN(CCO)S(=O)(=O)C(F)(F)C(F)(F)C(F)(F)C(F)(F)C(F)(F)C(F)(F)C(F)(F)C(F)(F)F [N-Ethyl-N-(2-hydroxyethyl)perfluorooctanesulfonamide]
Protocol: as §1

[6] = compound: NC(=O)C(F)(F)C(F)(F)F [Pentafluoropropionamide]
Protocol: as §1

[7] = compound: O=C(O)C(F)(F)C(F)(F)C(F)(F)C(F)(F)C(F)(F)C(F)(F)F [Perfluoroheptanoic acid]
Protocol: as §1

Test System	level (log10) ([1]; 6700 nM)	level (log10) ([1]; 20000 nM)	level (log10) ([2]; 6700 nM)	level (log10) ([2]; 20000 nM)	level (log10) ([2]; 60000 nM)	level (log10) ([3]; 6700 nM)	level (log10) ([3]; 20000 nM)	level (log10) ([4]; 6700 nM)	level (log10) ([4]; 20000 nM)	level (log10) ([4]; 60000 nM)	level (log10) ([5]; 6700 nM)	level (log10) ([5]; 20000 nM)	level (log10) ([6]; 6700 nM)	level (log10) ([6]; 20000 nM)	level (log10) ([6]; 60000 nM)	level (log10) ([7]; 6700 nM)	level (log10) ([7]; 20000 nM)	level (log10) ([7]; 60000 nM)
CASM3C:CD141/Thrombomodulin	-0.015 ± 0.031	-0.0125 ± 0.029	0.017 ± 0.033	0.0065 ± 0.033	-0.016 ± 0.041	0.003	0 ± 0.044	-0.003 ± 0.0028	-0.014 ± 0.0099	0.021 ± 0.04	0.078 ± 0.014	0.191 ± 0.013	-0.023 ± 0.034	-0.0315 ± 0.011	-0.0555 ± 0.015	-0.0085 ± 0.025	0.0065 ± 0.0064	0.011 ± 0.033
CASM3C:CD142/Tissue Factor	0.008 ± 0.0042	-0.0055 ± 0.012	0.007 ± 0.034	-0.0105 ± 0.05	-0.031 ± 0.041	-0.038 ± 0.047	-0.033 ± 0.014	-0.022 ± 0.027	-0.0145 ± 0.04	-0.0025 ± 0.037	-0.0325 ± 0.012	0.0145 ± 0.022	-0.0025 ± 0.022	-0.0095 ± 0.018	-0.0295 ± 0.026	-0.0065 ± 0.012	0.015 ± 0.016	0.015 ± 0.071
CASM3C:CXCL8/IL-8	-0.0035 ± 0.0064	-0.006 ± 0.0028	-0.005 ± 0.0057	-0.007 ± 0.0099	0.0075 ± 0.015	-0.0065 ± 0.005	-0.003 ± 0.0014	0.0045 ± 0.03	0.006 ± 0.03	0.033 ± 0.0028	-0.0075 ± 0.016	-0.024 ± 0.0085	-0.007 ± 0.014	-0.017 ± 0.0071	-0.0005 ± 0.012	-0.0085 ± 0.0064	-0.002 ± 0.0042	0.046 ± 0.018
CASM3C:CXCL9/MIG	-0.012 ± 0.0028	-0.0055 ± 0.0064	-0.0035 ± 0.00071	-0.01 ± 0.0014	0.0005 ± 0.011	-0.015 ± 0.014	-0.001 ± 0.017	-0.0175 ± 0.0078	0.0065 ± 0.005	0.027 ± 0.024	-0.0675 ± 0.005	-0.166 ± 0.073	0 ± 0.0014	-0.0035 ± 0.005	-0.008 ± 0.0042	0.006 ± 0.023	0.015 ± 0.016	0.054 ± 0.051
CASM3C:HLA-DR	0	0.006 ± 0.014	0.003 ± 0.024	-0.0025 ± 0.0021	-0.012 ± 0.038	-0.0105 ± 0.026	-0.0185 ± 0.0092	-0.035 ± 0.033	-0.0245 ± 0.0092	0.004 ± 0.041	-0.002 ± 0.024	-0.111 ± 0.013	-0.005 ± 0.0042	0.0045 ± 0.0092	-0.001 ± 0.018	-0.009 ± 0.0085	-0.0315 ± 0.005	-0.004 ± 0.052
CASM3C:IL-6	-0.035 ± 0.037	-0.0375 ± 0.039	-0.0275 ± 0.033	-0.0105 ± 0.012	0.013 ± 0.042	-0.02 ± 0.0057	0.007 ± 0.027	-0.001 ± 0.038	0 ± 0.044	0.0245 ± 0.0078	-0.0025 ± 0.0035	-0.0255 ± 0.044	-0.021 ± 0.017	-0.025 ± 0.0028	-0.003 ± 0.041	-0.0135 ± 0.0078	-0.0205 ± 0.021	0.008 ± 0.085
CASM3C:LDLR	-0.0045 ± 0.0078	0.0105 ± 0.03	-0.017 ± 0.0014	-0.0145 ± 0.0064	0.024 ± 0.047	-0.012 ± 0.017	-0.002 ± 0.011	0.0105 ± 0.016	0.01 ± 0.028	0.013 ± 0.013	-0.076 ± 0.0057	-0.223 ± 0.021	0.003 ± 0.042	0.0045 ± 0.011	0.0295 ± 0.015	0.0175 ± 0.0092	0.012 ± 0.016	0.0125 ± 0.039
CASM3C:M-CSF	0.0145 ± 0.0078	0.0345 ± 0.019	-0.0495 ± 0.0035	-0.0375 ± 0.018	0.022 ± 0.073	-0.0175 ± 0.0021	0.008 ± 0.042	-0.001 ± 0.011	-0.001 ± 0.03	0.031 ± 0.0071	0.0045 ± 0.00071	0.0395 ± 0.0092	-0.021 ± 0.038	-0.0125 ± 0.00071	0.0205 ± 0.035	-0.004 ± 0.028	-0.005 ± 0.028	0.0035 ± 0.049
CASM3C:PAI-I	0.001 ± 0.0014	-0.0015 ± 0.005	-0.0045 ± 0.0021	-0.0045 ± 0.012	0.0105 ± 0.0035	-0.0025 ± 0.0021	0.0045 ± 0.011	0.0015 ± 0.022	0.004 ± 0.013	0.0095 ± 0.0078	0 ± 0.0071	0.004 ± 0.0085	-0.009 ± 0.0099	-0.007 ± 0.014	0.0005 ± 0.0064	-0.0005 ± 0.018	0.0035 ± 0.011	0.0105 ± 0.015
CASM3C:Proliferation	0.049 ± 0.0028	0.0205 ± 0.035	-0.0675 ± 0.098	0.0315 ± 0.018	-0.0275 ± 0.087	-0.001 ± 0.047	0.0195 ± 0.071	-0.024 ± 0.023	-0.0095 ± 0.029	-0.0075 ± 0.025	0.011 ± 0.04	-0.175 ± 0.005	-0.0115 ± 0.015	-0.0025 ± 0.011	0.0235 ± 0.069	-0.023 ± 0.0085	-0.008 ± 0.035	0.0045 ± 0.053
CASM3C:SRB	0.0055 ± 0.0064	0.0055 ± 0.0064	-0.0135 ± 0.0078	0 ± 0.018	-0.0065 ± 0.0078	0.004 ± 0.0042	-0.001 ± 0.014	0.0025 ± 0.005	-0.0045 ± 0.005	0.0075 ± 0.015	-0.0265 ± 0.0078	-0.097 ± 0.014	-0.002 ± 0.0057	0 ± 0.0085	-0.0045 ± 0.00071	-0.008 ± 0.0099	-0.011 ± 0.0014	-0.0065 ± 0.012
CASM3C:Serum Amyloid A	0.035 ± 0.031	0.0345 ± 0.026	-0.0555 ± 0.023	-0.0445 ± 0.042	-0.0065 ± 0.096	-0.0235 ± 0.012	0.0035 ± 0.047	-0.0155 ± 0.0064	-0.017 ± 0.0099	0.008 ± 0.069	0.0875 ± 0.037	0.129 ± 0.042	0.0045 ± 0.015	-0.0055 ± 0.0035	0.0245 ± 0.005	-0.006 ± 0.021	-0.013 ± 0.04	0.022 ± 0.082
HDF3CGF:CCL2/MCP-1	-0.0595 ± 0.0078	0.042 ± 0.034	0.0005 ± 0.04	0.0055 ± 0.036	0.0185 ± 0.066	-0.0175 ± 0.022	-0.004 ± 0.0099	-0.002 ± 0.0071	-0.0055 ± 0.00071	0.0085 ± 0.022	-0.0485 ± 0.005	-0.1335 ± 0.00071	-0.024 ± 0.034	-0.0245 ± 0.012	-0.015 ± 0.031	-0.0085 ± 0.0064	0.0135 ± 0.00071	0.0115 ± 0.016
HDF3CGF:CD54/ICAM-1	-0.0485 ± 0.0092	-0.071	-0.0045 ± 0.021	0.0035 ± 0.0092	-0.001 ± 0.0099	-0.013 ± 0.021	-0.014 ± 0.041	-0.017 ± 0.0028	-0.0025 ± 0.005	-0.0055 ± 0.00071	0.133 ± 0.019	0.089 ± 0.0042	-0.01 ± 0.052	0.017 ± 0.024	-0.0025 ± 0.0064	0.004 ± 0.02	-0.0145 ± 0.005	-0.0255 ± 0.018
HDF3CGF:CD106/VCAM-1	-0.0085 ± 0.026	-0.623 ± 0.057	0.0035 ± 0.0092	-0.012 ± 0.018	-0.0345 ± 0.054	-0.0045 ± 0.012	-0.0245 ± 0.025	-0.008 ± 0.02	0.0165 ± 0.052	-0.0005 ± 0.036	-0.0825 ± 0.046	-0.173 ± 0.11	-0.0335 ± 0.022	-0.0305 ± 0.025	-0.0225 ± 0.044	-0.034 ± 0.027	-0.0135 ± 0.029	-0.021 ± 0.038
HDF3CGF:CXCL8/IL-8	0.0065 ± 0.005	0.02 ± 0.011	-0.003 ± 0.0057	0.002 ± 0.0014	0.0045 ± 0.012	0.001 ± 0.013	0.006 ± 0.0028	0.0045 ± 0.0064	0.0125 ± 0.0035	0.003 ± 0.017	0.0345 ± 0.016	0.011 ± 0.0071	-0.006 ± 0.0057	-0.0105 ± 0.00071	-0.0065 ± 0.013	-0.0055 ± 0.0078	-0.0055 ± 0.0064	0.0095 ± 0.013
